According to PubChem BioAssay AID2060607 (Molecular Pharmacology Branch, DTP, NCI, 2025):
Each block holds one molecule with its values, some of them ahead of it.

Tested on: 876862-298-R-J1-PDC complex spheroids, viability % test/control
Experiment: Anticancer human tumor 876862-298-R-J1-PDC patient-derived endometrial carcinoma cell line growth inhibition [CLK]
Conditions: for IC50: curve of first compound; for viability, T/C: stronger effect = lower value
How it was run: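 Multi-cell-type spheroids combined patient-derived tumor cells with HUVEC endothelial cells and human mesenchymal stem cells. Paired agents were dosed in half-log steps down from about clinical Cmax, or from 10 microM where Cmax was unknown.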

[1] = second compound 0.0316 µM, first compound 0.00949 µM
[2] = second compound 0.0316 µM, first compound 0.03 µM
[3] = second compound 0.0316 µM, first compound 0.0949 µM
[4] = second compound 0.0316 µM, first compound 0.3 µM
[5] = second compound 0.1 µM, first compound 0.00949 µM
[6] = second compound 0.1 µM, first compound 0.03 µM
[7] = second compound 0.1 µM, first compound 0.0949 µM
[8] = second compound 0.1 µM, first compound 0.3 µM
[9] = second compound 0.316 µM, first compound 0.00949 µM
[10] = second compound 0.316 µM, first compound 0.03 µM
[11] = second compound 0.316 µM, first compound 0.0949 µM
[12] = second compound 0.316 µM, first compound 0.3 µM
[13] = second compound 1 µM, first compound 0.00949 µM
[14] = second compound 1 µM, first compound 0.03 µM
[15] = second compound 1 µM, first compound 0.0949 µM
[16] = second compound 1 µM, first compound 0.3 µM
[17] = second compound 3.16 µM, first compound 0.00949 µM
[18] = second compound 3.16 µM, first compound 0.03 µM
[19] = second compound 3.16 µM, first compound 0.0949 µM
[20] = second compound 3.16 µM, first compound 0.3 µM
[21] = second compound 10 µM, first compound 0.00949 µM
[22] = second compound 10 µM, first compound 0.03 µM
[23] = second compound 10 µM, first compound 0.0949 µM
[24] = second compound 10 µM, first compound 0.3 µM
[25] = second compound 0.0316 µM, first compound 0.0316 µM
[26] = second compound 0.0316 µM, first compound 0.1 µM
[27] = second compound 0.0316 µM, first compound 0.316 µM
[28] = second compound 0.0316 µM, first compound 1 µM
[29] = second compound 0.0316 µM, first compound 3.16 µM
[30] = second compound 0.0316 µM, first compound 10 µM
[31] = second compound 0.1 µM, first compound 0.0316 µM
[32] = second compound 0.1 µM, first compound 0.1 µM
[33] = second compound 0.1 µM, first compound 0.316 µM
[34] = second compound 0.1 µM, first compound 1 µM
[35] = second compound 0.1 µM, first compound 3.16 µM
[36] = second compound 0.1 µM, first compound 10 µM
[37] = second compound 0.316 µM, first compound 0.0316 µM
[38] = second compound 0.316 µM, first compound 0.1 µM
[39] = second compound 0.316 µM, first compound 0.316 µM
[40] = second compound 0.316 µM, first compound 1 µM
[41] = second compound 0.316 µM, first compound 3.16 µM
[42] = second compound 0.316 µM, first compound 10 µM
[43] = second compound 1 µM, first compound 0.0316 µM
[44] = second compound 1 µM, first compound 0.1 µM
[45] = second compound 1 µM, first compound 0.316 µM
[46] = second compound 1 µM, first compound 1 µM
[47] = second compound 1 µM, first compound 3.16 µM
[48] = second compound 1 µM, first compound 10 µM
[49] = second compound 3.16 µM, first compound 0.0316 µM
[50] = second compound 3.16 µM, first compound 0.1 µM
[51] = second compound 3.16 µM, first compound 0.316 µM
[52] = second compound 3.16 µM, first compound 1 µM
[53] = second compound 3.16 µM, first compound 3.16 µM
[54] = second compound 3.16 µM, first compound 10 µM
[55] = second compound 10 µM, first compound 0.0316 µM
[56] = second compound 10 µM, first compound 0.1 µM
[57] = second compound 10 µM, first compound 0.316 µM
[58] = second compound 10 µM, first compound 1 µM
[59] = second compound 10 µM, first compound 3.16 µM
[60] = second compound 10 µM, first compound 10 µM
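Also: spheroids exposed to drugs for 7 days before readout.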
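For viability, T/C in this document: 100% = DMSO vehicle control wells.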

IC50 (second compound 0.0316 µM): 170 nM | IC50 (second compound 0.1 µM): < 0.949 nM | IC50 (second compound 0.316 µM): < 0.949 nM | IC50 (second compound 1 µM): < 0.949 nM | IC50 (second compound 3.16 µM): < 0.949 nM | IC50 (second compound 10 µM): < 0.949 nM
Structure (SMILES): C=CC(=O)Nc1cc(Nc2nccc(-c3cn(C)c4ccccc34)n2)c(OC)cc1N(C)CCN(C)C + CNC(=O)c1ccc(Nc2nc(OC3CCCC3)c3c(-c4ccc5nc(C)oc5c4)c[nH]c3n2)c(OC)c1
viability, T/C (second compound 0.0316 µM, first compound 0.000949 µM): 74.5% | viability, T/C (second compound 0.0316 µM, first compound 0.003 µM): 79.6% | viability, T/C [1]: 69.1% | viability, T/C [2]: 64% | viability, T/C [3]: 53.5% | viability, T/C [4]: 46.6% | viability, T/C (second compound 0.1 µM, first compound 0.000949 µM): 49.2% | viability, T/C (second compound 0.1 µM, first compound 0.003 µM): 46% | viability, T/C [5]: 44.2% | viability, T/C [6]: 44.1% | viability, T/C [7]: 41.7% | viability, T/C [8]: 31.3% | viability, T/C (second compound 0.316 µM, first compound 0.000949 µM): 46.4% | viability, T/C (second compound 0.316 µM, first compound 0.003 µM): 41.3% | viability, T/C [9]: 42.3% | viability, T/C [10]: 41.1% | viability, T/C [11]: 34% | viability, T/C [12]: 27.8% | viability, T/C (second compound 1 µM, first compound 0.000949 µM): 36.5% | viability, T/C (second compound 1 µM, first compound 0.003 µM): 30.8% | viability, T/C [13]: 32.7% | viability, T/C [14]: 26.9% | viability, T/C [15]: 30.2% | viability, T/C [16]: 27.4% | viability, T/C (second compound 3.16 µM, first compound 0.000949 µM): 24.1% | viability, T/C (second compound 3.16 µM, first compound 0.003 µM): 27.6% | viability, T/C [17]: 19.2% | viability, T/C [18]: 20.9% | viability, T/C [19]: 20% | viability, T/C [20]: 19% | viability, T/C (second compound 10 µM, first compound 0.000949 µM): 23.1% | viability, T/C (second compound 10 µM, first compound 0.003 µM): 23.4% | viability, T/C [21]: 21.7% | viability, T/C [22]: 19.7% | viability, T/C [23]: 17.9% | viability, T/C [24]: 17.4%

IC50 (second compound 0.0316 µM): 5400 nM | IC50 (second compound 0.1 µM): 473 nM | IC50 (second compound 0.316 µM): < 31.6 nM | IC50 (second compound 1 µM): < 31.6 nM | IC50 (second compound 3.16 µM): < 31.6 nM | IC50 (second compound 10 µM): < 31.6 nM
Structure (SMILES): CC1(C)CCC(CN2CCN(c3ccc(C(=O)NS(=O)(=O)c4ccc(NCC5CCOCC5)c([N+](=O)[O-])c4)c(Oc4cnc5[nH]ccc5c4)c3)CC2)=C(c2ccc(Cl)cc2)C1 + CNC(=O)c1ccc(Nc2nc(OC3CCCC3)c3c(-c4ccc5nc(C)oc5c4)c[nH]c3n2)c(OC)c1
viability, T/C [25]: 69.5% | viability, T/C [26]: 88.6% | viability, T/C [27]: 83% | viability, T/C [28]: 90.6% | viability, T/C [29]: 86.1% | viability, T/C [30]: 11.2% | viability, T/C [31]: 48.2% | viability, T/C [32]: 52.2% | viability, T/C [33]: 52.3% | viability, T/C [34]: 49.2% | viability, T/C [35]: 39.2% | viability, T/C [36]: 11.8% | viability, T/C [37]: 45.1% | viability, T/C [38]: 39.5% | viability, T/C [39]: 47.9% | viability, T/C [40]: 46.1% | viability, T/C [41]: 35.9% | viability, T/C [42]: 9.32% | viability, T/C [43]: 37.7% | viability, T/C [44]: 34.4% | viability, T/C [45]: 32.3% | viability, T/C [46]: 33.2% | viability, T/C [47]: 26.4% | viability, T/C [48]: 9.54% | viability, T/C [49]: 23.6% | viability, T/C [50]: 23.8% | viability, T/C [51]: 25.4% | viability, T/C [52]: 21.6% | viability, T/C [53]: 19.4% | viability, T/C [54]: 5.35% | viability, T/C [55]: 19.9% | viability, T/C [56]: 19.8% | viability, T/C [57]: 17.6% | viability, T/C [58]: 20.3% | viability, T/C [59]: 14.9% | viability, T/C [60]: 5.66%

IC50 (second compound 0.0316 µM): 19.4 nM | IC50 (second compound 0.1 µM): < 9.49 nM | IC50 (second compound 0.316 µM): < 9.49 nM | IC50 (second compound 1 µM): < 9.49 nM | IC50 (second compound 3.16 µM): < 9.49 nM | IC50 (second compound 10 µM): < 9.49 nM
Structure (SMILES): NC(=O)C(=Cn1cnc(-c2cc(C(F)(F)F)cc(C(F)(F)F)c2)n1)c1cncnc1 + CNC(=O)c1ccc(Nc2nc(OC3CCCC3)c3c(-c4ccc5nc(C)oc5c4)c[nH]c3n2)c(OC)c1
viability, T/C [1]: 52.2% | viability, T/C [2]: 49.7% | viability, T/C [3]: 35.9% | viability, T/C [4]: 25% | viability, T/C (second compound 0.0316 µM, first compound 0.949 µM): 9.87% | viability, T/C (second compound 0.0316 µM, first compound 3 µM): 8.36% | viability, T/C [5]: 37.7% | viability, T/C [6]: 34.3% | viability, T/C [7]: 27.8% | viability, T/C [8]: 19.4% | viability, T/C (second compound 0.1 µM, first compound 0.949 µM): 8.19% | viability, T/C (second compound 0.1 µM, first compound 3 µM): 5.57% | viability, T/C [9]: 35.7% | viability, T/C [10]: 24.1% | viability, T/C [11]: 21.8% | viability, T/C [12]: 14.3% | viability, T/C (second compound 0.316 µM, first compound 0.949 µM): 4.08% | viability, T/C (second compound 0.316 µM, first compound 3 µM): 1.39% | viability, T/C [13]: 24.4% | viability, T/C [14]: 21.2% | viability, T/C [15]: 15.8% | viability, T/C [16]: 6.44% | viability, T/C (second compound 1 µM, first compound 0.949 µM): 2.52% | viability, T/C (second compound 1 µM, first compound 3 µM): 1.7% | viability, T/C [17]: 19.2% | viability, T/C [18]: 13.5% | viability, T/C [19]: 6.99% | viability, T/C [20]: 2.31% | viability, T/C (second compound 3.16 µM, first compound 0.949 µM): 2.53% | viability, T/C (second compound 3.16 µM, first compound 3 µM): 1.98% | viability, T/C [21]: 17.8% | viability, T/C [22]: 13.8% | viability, T/C [23]: 5.85% | viability, T/C [24]: 1.75% | viability, T/C (second compound 10 µM, first compound 0.949 µM): 1.16% | viability, T/C (second compound 10 µM, first compound 3 µM): 0.58%

IC50 (second compound 0.0316 µM): 3670 nM | IC50 (second compound 0.1 µM): 1070 nM | IC50 (second compound 0.316 µM): < 31.6 nM | IC50 (second compound 1 µM): < 31.6 nM | IC50 (second compound 3.16 µM): < 31.6 nM | IC50 (second compound 10 µM): < 31.6 nM
Structure (SMILES): Nc1ccccc1NC(=O)c1ccc(CNC(=O)OCc2cccnc2)cc1 + CNC(=O)c1ccc(Nc2nc(OC3CCCC3)c3c(-c4ccc5nc(C)oc5c4)c[nH]c3n2)c(OC)c1
viability, T/C [25]: 71.4% | viability, T/C [26]: 88.4% | viability, T/C [27]: 82.8% | viability, T/C [28]: 80.6% | viability, T/C [29]: 53.1% | viability, T/C [30]: 29.2% | viability, T/C [31]: 46.3% | viability, T/C [32]: 45.3% | viability, T/C [33]: 62.3% | viability, T/C [34]: 50.2% | viability, T/C [35]: 39.4% | viability, T/C [36]: 24.9% | viability, T/C [37]: 41.2% | viability, T/C [38]: 43.8% | viability, T/C [39]: 44.7% | viability, T/C [40]: 40.9% | viability, T/C [41]: 27.3% | viability, T/C [42]: 16.9% | viability, T/C [43]: 33.4% | viability, T/C [44]: 31.7% | viability, T/C [45]: 32.5% | viability, T/C [46]: 27.1% | viability, T/C [47]: 15.7% | viability, T/C [48]: 9.26% | viability, T/C [49]: 25% | viability, T/C [50]: 22.5% | viability, T/C [51]: 22.5% | viability, T/C [52]: 16.1% | viability, T/C [53]: 12.1% | viability, T/C [54]: 2.17% | viability, T/C [55]: 21% | viability, T/C [56]: 22.2% | viability, T/C [57]: 16.6% | viability, T/C [58]: 15.7% | viability, T/C [59]: 10% | viability, T/C [60]: 0.74%
